ChEMBL document CHEMBL1201861, “Genomics of Drug Sensitity in Cancer screening data, Wellcome Trust Sanger Institute”

Columns and labels:
Assay in all cases: cells
COLO-800 = assay type: functional, cell-based, Homo sapiens; details: Homo sapiens, COLO-800;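 also: growth inhibition of COLO-800 cells, read out with a cell viability assay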
Description: SANGER: Inhibition of human COLO-800 cell growth in a cell viability assay.

CTV-1 = assay type: functional, cell-based, Homo sapiens; details: Homo sapiens, CTV-1;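 also: growth inhibition of the cell line, read out with a cell viability assay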
Description: SANGER: Inhibition of human CTV-1 cell growth in a cell viability assay.

D283 Med = assay type: functional, cell-based, Homo sapiens; details: Homo sapiens, D283 Med
Description: SANGER: Inhibition of human D-283MED cell growth in a cell viability assay.

DSH1 = assay type: functional, cell-based, Homo sapiens; details: Homo sapiens, DSH1;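 also: growth inhibition of human DSH1 cells, measured with a cell viability readout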
Description: SANGER: Inhibition of human DSH1 cell growth in a cell viability assay.

EC-GI-10 = assay type: functional, cell-based, Homo sapiens; details: Homo sapiens, EC-GI-10
Description: SANGER: Inhibition of human EC-GI-10 cell growth in a cell viability assay.

EKVX = assay type: functional, cell-based, Homo sapiens; details: Homo sapiens, EKVX;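 also: growth inhibition of human EKVX cells, read out with a cell viability assay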
Description: SANGER: Inhibition of human EKVX cell growth in a cell viability assay.

ES3 = assay type: functional, cell-based, Homo sapiens; details: Homo sapiens, ES3;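 also: growth inhibition of ES3 cells, read out with a cell viability assay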
Description: SANGER: Inhibition of human ES3 cell growth in a cell viability assay.

ES4 = assay type: functional, cell-based, Homo sapiens; details: Homo sapiens, ES4;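 also: growth inhibition of human ES4 cells, read out by a cell viability assay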
Description: SANGER: Inhibition of human ES4 cell growth in a cell viability assay.

ES5 = assay type: functional, cell-based, Homo sapiens; details: Homo sapiens, ES5;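 also: growth inhibition of human ES5 cells, read out by a cell viability assay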
Description: SANGER: Inhibition of human ES5 cell growth in a cell viability assay.

ES6 = assay type: functional, cell-based, Homo sapiens; details: Homo sapiens, ES6;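 also: growth inhibition of human ES6 cells, read out with a cell viability assay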
Description: SANGER: Inhibition of human ES6 cell growth in a cell viability assay.

EOL1 = assay type: functional, cell-based, Homo sapiens; details: Homo sapiens, EOL1;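 also: growth inhibition of EoL-1 cells, read out by a cell viability assay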
Description: SANGER: Inhibition of human EoL-1-cell cell growth in a cell viability assay.

HAL-01 = assay type: functional, cell-based, Homo sapiens; details: Homo sapiens, HAL-01;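 also: growth inhibition of human HAL-01 cells, read out with a cell viability assay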
Description: SANGER: Inhibition of human HAL-01 cell growth in a cell viability assay.

HC-1 = assay type: functional, cell-based, Homo sapiens; details: Homo sapiens, HC-1;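 also: growth inhibition of HC-1 cells measured by a cell viability assay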
Description: SANGER: Inhibition of human HC-1 cell growth in a cell viability assay.

HCC2218 = assay type: functional, cell-based, Homo sapiens; details: Homo sapiens, HCC2218;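 also: cell viability assay read-out, with IC50 given as the concentration that inhibits growth of the cell line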
Description: SANGER: Inhibition of human HCC2218 cell growth in a cell viability assay.

HD-MY-Z = assay type: functional, cell-based, Homo sapiens; details: Homo sapiens, HD-MY-Z;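 also: growth inhibition of HD-MY-Z cells, read out with a cell viability assay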
Description: SANGER: Inhibition of human HD-MY-Z cell growth in a cell viability assay.

HEL = assay type: functional, cell-based, Homo sapiens; details: Homo sapiens, HEL;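 also: growth inhibition of HEL cells, read out with a cell viability assay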
Description: SANGER: Inhibition of human HEL cell growth in a cell viability assay.

J-RT3-T3-5 = assay type: functional, cell-based, Homo sapiens; details: Homo sapiens, J-RT3-T3-5;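 also: cell viability assay measuring growth inhibition of human J-RT3-T3-5 cells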
Description: SANGER: Inhibition of human J-RT3-T3-5 cell growth in a cell viability assay.

KLE = assay type: functional, cell-based, Homo sapiens; details: Homo sapiens, KLE;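 also: growth inhibition of human KLE cells, read out with a cell viability assay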
Description: SANGER: Inhibition of human KLE cell growth in a cell viability assay.

KM12 = assay type: functional, cell-based, Homo sapiens; details: Homo sapiens, KM12;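 also: KM12 cell growth inhibition, read out with a cell viability assay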
Description: SANGER: Inhibition of human KM12 cell growth in a cell viability assay.

KNS-42 = assay type: functional, cell-based, Homo sapiens; details: Homo sapiens, KNS-42;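 also: growth inhibition of KNS-42 cells, read out with a cell viability assay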
Description: SANGER: Inhibition of human KNS-42 cell growth in a cell viability assay.

KNS-81-FD = assay type: functional, cell-based, Homo sapiens; details: Homo sapiens, KNS-81-FD;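 also: growth inhibition of KNS-81-FD cells, read out with a cell viability assay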
Description: SANGER: Inhibition of human KNS-81-FD cell growth in a cell viability assay.

KS-1 = assay type: functional, cell-based, Homo sapiens; details: Homo sapiens, KS-1;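 also: growth inhibition of KS-1 cells, read out with a cell viability assay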
Description: SANGER: Inhibition of human KS-1 cell growth in a cell viability assay.

KY821 = assay type: functional, cell-based, Homo sapiens; details: Homo sapiens, KY821;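 also: growth inhibition of human KY821 cells, read out by a cell viability assay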
Description: SANGER: Inhibition of human KY821 cell growth in a cell viability assay.

LB373-MEL-D = assay type: functional, cell-based, Homo sapiens; details: Homo sapiens, LB373-MEL-D;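 also: growth inhibition of the cell line, read out in a cell viability assay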
Description: SANGER: Inhibition of human LB373-MEL-D cell growth in a cell viability assay.

LB771-HNC = assay type: functional, cell-based, Homo sapiens; details: Homo sapiens, LB771-HNC;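 also: growth inhibition of LB771-HNC human cells, read out with a cell viability assay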
Description: SANGER: Inhibition of human LB771-HNC cell growth in a cell viability assay.

LS-1034 = assay type: functional, cell-based, Homo sapiens; details: Homo sapiens, LS-1034
Description: SANGER: Inhibition of human LS-1034 cell growth in a cell viability assay.

LS-411N = assay type: functional, cell-based, Homo sapiens; details: Homo sapiens, LS-411N
LU-139 = assay type: functional, cell-based, Homo sapiens; details: Homo sapiens, LU-139
Description: SANGER: Inhibition of human LU-139 cell growth in a cell viability assay.

MFM-223 = assay type: functional, cell-based, Homo sapiens; details: Homo sapiens, MFM-223
Description: SANGER: Inhibition of human MFM-223 cell growth in a cell viability assay.

MOLT-16 = assay type: functional, cell-based, Homo sapiens; details: Homo sapiens, MOLT-16;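 also: growth inhibition of human MOLT-16 cells, read out with a cell viability assay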
Description: SANGER: Inhibition of human MOLT-16 cell growth in a cell viability assay.

MV4-11 = assay type: functional, cell-based, Homo sapiens, MV-4-11; details: Homo sapiens, MV4-11;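 also: cell viability readout measuring growth inhibition of human MV-4-11 cells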
Description: SANGER: Inhibition of human MV-4-11 cell growth in a cell viability assay.

NCI-H1838 = assay type: functional, cell-based, Homo sapiens; details: Homo sapiens, NCI-H1838;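 also: growth inhibition of NCI-H1838 cells, determined with a cell viability readout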
Description: SANGER: Inhibition of human NCI-H1838 cell growth in a cell viability assay.

NCI-H226 = assay type: functional, cell-based, Homo sapiens; details: Homo sapiens, NCI-H226;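 also: cell viability read-out used to gauge growth inhibition of the cells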
Description: SANGER: Inhibition of human NCI-H226 cell growth in a cell viability assay.

NCI-H69 = assay type: functional, cell-based, Homo sapiens; details: Homo sapiens, NCI-H69;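 also: growth inhibition of the cell line, read out with a cell viability assay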
Description: SANGER: Inhibition of human NCI-H69 cell growth in a cell viability assay.

NCI-H720 = assay type: functional, cell-based, Homo sapiens; details: Homo sapiens, NCI-H720;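 also: growth inhibition of human NCI-H720 cells determined by a cell viability assay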
Description: SANGER: Inhibition of human NCI-H720 cell growth in a cell viability assay.

SNU1 = assay type: functional, cell-based, Homo sapiens; details: Homo sapiens, SNU1;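 also: growth inhibition of human NCI-SNU-1 cells, measured with a cell viability assay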
Description: SANGER: Inhibition of human NCI-SNU-1 cell growth in a cell viability assay.

NOS-1 = assay type: functional, cell-based, Homo sapiens; details: Homo sapiens, NOS-1;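 also: growth inhibition of the human NOS-1 cell line, read out with a cell viability assay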
Description: SANGER: Inhibition of human NOS-1 cell growth in a cell viability assay.

NTERA-2-cl-D1 = assay type: functional, cell-based, Homo sapiens; details: Homo sapiens, NTERA-2-cl-D1;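 also: inhibition of cell growth, measured with a cell viability assay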
Description: SANGER: Inhibition of human NTERA-S-cl-D1 cell growth in a cell viability assay.

SJSA-1 = assay type: functional, cell-based, Homo sapiens; details: Homo sapiens, SJSA-1;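 also: growth inhibition of human SJSA-1 cells, read out through a cell viability measurement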
Description: SANGER: Inhibition of human SJSA-1 cell growth in a cell viability assay.

SK-LMS-1 = assay type: functional, cell-based, Homo sapiens; details: Homo sapiens, SK-LMS-1;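 also: growth inhibition of human SK-LMS-1 cells, read out with a cell viability assay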
Description: SANGER: Inhibition of human SK-LMS-1 cell growth in a cell viability assay.

SK-NEP-1 = assay type: functional, cell-based, Homo sapiens; details: Homo sapiens, SK-NEP-1;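 also: growth inhibition of human SK-NEP-1 cells, read out by a cell viability assay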
Description: SANGER: Inhibition of human SK-NEP-1 cell growth in a cell viability assay.

SW684 = assay type: functional, cell-based, Homo sapiens; details: Homo sapiens, SW684;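 also: growth inhibition of human SW684 cells, measured by a cell viability assay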
Description: SANGER: Inhibition of human SW684 cell growth in a cell viability assay.

A3-KAW = assay type: functional, cell-based, Homo sapiens; details: Homo sapiens, A3-KAW;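 also: growth inhibition of human A3-KAW cells, read out with a cell viability assay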
Description: SANGER: Inhibition of human A3-KAW cell growth in a cell viability assay.

ATN-1 = assay type: functional, cell-based, Homo sapiens; details: Homo sapiens, ATN-1;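 also: growth inhibition of human ATN-1 cells, read out with a cell viability assay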
Description: SANGER: Inhibition of human ATN-1 cell growth in a cell viability assay.

TE-10 = assay type: functional, cell-based, Homo sapiens; details: Homo sapiens, TE-10;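 also: growth inhibition of TE-10 cells, measured by a cell viability assay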
Description: SANGER: Inhibition of human TE-10 cell growth in a cell viability assay.

TE-11 = assay type: functional, cell-based, Homo sapiens; details: Homo sapiens, TE-11;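 also: growth inhibition of human TE-11 cells, read out by a cell viability assay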
Description: SANGER: Inhibition of human TE-11 cell growth in a cell viability assay.

TK-10 = assay type: functional, cell-based, Homo sapiens; details: Homo sapiens, TK-10;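 also: growth inhibition of TK-10 cells, read out in a cell viability assay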
Description: SANGER: Inhibition of human TK10 cell growth in a cell viability assay.

CAS-1 = assay type: functional, cell-based, Homo sapiens; details: Homo sapiens, CAS-1;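 also: growth inhibition of CAS-1 cells, measured with a cell viability assay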
Description: SANGER: Inhibition of human CAS-1 cell growth in a cell viability assay.

COLO-684 = assay type: functional, cell-based, Homo sapiens; details: Homo sapiens, COLO-684
Description: SANGER: Inhibition of human COLO-684 cell growth in a cell viability assay.

OCCCNc1cc(-c2ccnc(Nc3cccc(Cl)c3)n2)ccn1
IC50 (COLO-800): > 256 nM
IC50 (CTV-1): 66 nM
IC50 (D283 Med): > 256 nM
IC50 (DSH1): > 256 nM
IC50 (EC-GI-10): > 256 nM
IC50 (EKVX): > 256 nM
IC50 (ES3): > 256 nM
IC50 (ES4): 35.1 nM
IC50 (ES5): > 256 nM
IC50 (ES6): 8.78 nM
IC50 (EOL1): > 256 nM
IC50 (HAL-01): 66 nM
IC50 (HC-1): 52.2 nM
IC50 (HCC2218): > 256 nM
IC50 (HD-MY-Z): 60.2 nM
IC50 (HEL): 114 nM
IC50 (J-RT3-T3-5): 83.2 nM
IC50 (KLE): 55.6 nM
IC50 (KM12): 124 nM
IC50 (KNS-42): 130 nM
IC50 (KNS-81-FD): > 256 nM
IC50 (KS-1): 14 nM
IC50 (KY821): 90.5 nM
IC50 (LB373-MEL-D): 209 nM
IC50 (LB771-HNC): 161 nM
IC50 (LS-1034): 255 nM
IC50 (LS-411N): 37.9 nM
IC50 (LU-139): 131 nM
IC50 (MFM-223): > 256 nM
IC50 (MOLT-16): > 256 nM
IC50 (MV4-11): 43.1 nM
IC50 (NCI-H1838): > 256 nM
IC50 (NCI-H226): 213 nM
IC50 (NCI-H69): > 256 nM
IC50 (NCI-H720): > 256 nM
IC50 (SNU1): > 256 nM
IC50 (NOS-1): 19.6 nM
IC50 (NTERA-2-cl-D1): 50.8 nM
IC50 (SJSA-1): 60.7 nM
IC50 (SK-LMS-1): 135 nM
IC50 (SK-NEP-1): 80.9 nM
IC50 (SW684): > 256 nM
IC50 (A3-KAW): 19.9 nM
IC50 (ATN-1): 54.2 nM
IC50 (TE-10): 38.2 nM
IC50 (TE-11): 34.2 nM
IC50 (TK-10): 57 nM
IC50 (CAS-1): > 256 nM
IC50 (COLO-684): 94.9 nM

Cc1ccc(-c2c(C(=O)CCl)n(CCCO)c3ncnc(N)c23)cc1
IC50 (COLO-800): > 4000 nM
IC50 (CTV-1): > 4000 nM
IC50 (D283 Med): > 4000 nM
IC50 (DSH1): > 4000 nM
IC50 (EC-GI-10): > 4000 nM
IC50 (EKVX): > 4000 nM
IC50 (ES3): > 4000 nM
IC50 (ES4): > 4000 nM
IC50 (ES5): > 4000 nM
IC50 (ES6): > 4000 nM
IC50 (EOL1): > 4000 nM
IC50 (HAL-01): > 4000 nM
IC50 (HC-1): > 4000 nM
IC50 (HCC2218): > 4000 nM
IC50 (HD-MY-Z): 2500 nM
IC50 (HEL): > 4000 nM
IC50 (J-RT3-T3-5): > 4000 nM
IC50 (KLE): > 4000 nM
IC50 (KM12): > 4000 nM
IC50 (KNS-42): > 4000 nM
IC50 (KNS-81-FD): > 4000 nM
IC50 (KS-1): 1050 nM
IC50 (KY821): 3680 nM
IC50 (LB373-MEL-D): > 4000 nM
IC50 (LB771-HNC): > 4000 nM
IC50 (LS-1034): > 4000 nM
IC50 (LS-411N): > 4000 nM
IC50 (LU-139): > 4000 nM
IC50 (MFM-223): > 4000 nM
IC50 (MOLT-16): > 4000 nM
IC50 (MV4-11): > 4000 nM
IC50 (NCI-H1838): > 4000 nM
IC50 (NCI-H226): > 4000 nM
IC50 (NCI-H69): > 4000 nM
IC50 (NCI-H720): > 4000 nM
IC50 (SNU1): > 4000 nM
IC50 (NOS-1): > 4000 nM
IC50 (NTERA-2-cl-D1): > 4000 nM
IC50 (SJSA-1): > 4000 nM
IC50 (SK-LMS-1): 1400 nM
IC50 (SK-NEP-1): > 4000 nM
IC50 (SW684): > 4000 nM
IC50 (A3-KAW): > 4000 nM
IC50 (ATN-1): > 4000 nM
IC50 (TE-10): > 4000 nM
IC50 (TE-11): > 4000 nM
IC50 (TK-10): 1950 nM
IC50 (CAS-1): > 4000 nM
IC50 (COLO-684): > 4000 nM
